In ChEMBL document CHEMBL3124804, “Discovery of a cyclopentylamine as an orally active dual NK1 receptor antagonist-serotonin reuptake transporter inhibitor” (Bioorg Med Chem Lett, 2014):
Calls of active or inactive are those of the source. The rule behind the calls is not given here.

Tests used:
Substance-P receptor = Substance-P receptor (Homo sapiens, UniProt P25103); experiment: Antagonist activity at human NK1 receptor
Gerbillinae [1] = experiment: Neurotoxicity in gerbil assessed as increase in spontaneous locomotor activity at 30 mg/kg, po relative to vehicle-treated control; assay type: toxicity, organism-based; design: dose 30 mg/kg, route oral; conditions: in vivo
[2] = molecular target: Sodium-dependent serotonin transporter (Homo sapiens, UniProt P31645); experiment: Inhibition of human SERT
Chain of Sodium-dependent serotonin transporter (P31645 whole entry): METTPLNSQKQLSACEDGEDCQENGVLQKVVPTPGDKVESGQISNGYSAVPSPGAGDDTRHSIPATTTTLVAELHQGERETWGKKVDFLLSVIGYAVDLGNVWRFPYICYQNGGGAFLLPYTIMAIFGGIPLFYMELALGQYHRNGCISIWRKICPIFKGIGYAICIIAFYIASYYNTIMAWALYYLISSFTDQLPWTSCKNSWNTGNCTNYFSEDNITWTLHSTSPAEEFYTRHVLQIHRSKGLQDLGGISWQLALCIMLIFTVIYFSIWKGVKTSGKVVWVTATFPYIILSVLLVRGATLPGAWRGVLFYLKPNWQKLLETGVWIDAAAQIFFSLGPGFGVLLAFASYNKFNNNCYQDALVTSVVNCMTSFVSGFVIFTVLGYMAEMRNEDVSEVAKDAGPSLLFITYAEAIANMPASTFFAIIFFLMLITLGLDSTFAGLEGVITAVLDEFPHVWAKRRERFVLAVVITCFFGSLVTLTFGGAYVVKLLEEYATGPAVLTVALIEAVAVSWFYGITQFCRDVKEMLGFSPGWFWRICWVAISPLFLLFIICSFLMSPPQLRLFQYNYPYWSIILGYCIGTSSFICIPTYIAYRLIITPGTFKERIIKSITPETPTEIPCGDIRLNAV

[3] = Drug uptake in gerbil brain at 30 mg/kg, po; assay type: ADME, organism-based; design: dose 30 mg/kg, route oral; conditions: gerbillinae, in vivo, read-out: Drug uptake
Gerbillinae [4] = experiment: Antidepressant activity in gerbil assessed as reduction of immobility time at 3 to 10 mg/kg, po administered 30 mins prior to testing measured over 6 mins by forced swimming test relative to vehicle-treated control; assay type: functional, organism-based
Gerbillinae [5] = experiment: Antidepressant activity in gerbil assessed as reduction of immobility time at 30 mg/kg, po administered 30 mins prior to testing measured over 6 mins by forced swimming test relative to vehicle-treated control; assay type: functional, organism-based; design: dose 30 mg/kg
[6] = Plasma concentration in gerbil at 30 mg/kg, po; assay type: ADME, organism-based; design: dose 30 mg/kg, route oral; conditions: gerbillinae, in vivo

Chain of Substance-P receptor (P25103 whole entry): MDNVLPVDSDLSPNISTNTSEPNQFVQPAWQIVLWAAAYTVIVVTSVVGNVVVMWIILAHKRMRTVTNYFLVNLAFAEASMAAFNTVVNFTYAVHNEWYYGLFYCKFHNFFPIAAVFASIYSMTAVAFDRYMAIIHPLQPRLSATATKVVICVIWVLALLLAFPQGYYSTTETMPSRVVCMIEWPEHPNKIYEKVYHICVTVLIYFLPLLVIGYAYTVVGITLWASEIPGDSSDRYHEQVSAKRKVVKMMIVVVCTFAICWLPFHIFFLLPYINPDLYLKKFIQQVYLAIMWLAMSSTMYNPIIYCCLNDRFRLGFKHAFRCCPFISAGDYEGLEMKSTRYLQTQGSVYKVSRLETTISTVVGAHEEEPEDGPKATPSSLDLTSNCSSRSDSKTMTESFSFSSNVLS

Which IC50 (Substance-P receptor) does the source give for N[C@H]1CC[C@@](COCc2cc(C(F)(F)F)cc(C(F)(F)F)c2)(c2ccccc2)C1 here?
Its IC50 is 7.5 nM.

What about the Activity (Gerbillinae [1]) of the same compound?
Its Activity is “Non-toxic”.

And the IC50 [2]?
Its IC50 is 4.7 nM.

What about the concentration [3] of the same compound?
Its concentration is 7.4 µM.

What about the Activity (Gerbillinae [4]) of the same compound?
The Activity was “inactive”.

What about the Activity (Gerbillinae [5]) of the same compound?
The Activity was “Active”.

What about the concentration [6] of the same compound?
The concentration was 300 nM.

With N[C@@H]1CC[C@](COCc2cc(C(F)(F)F)cc(C(F)(F)F)c2)(c2ccccc2)C1 as the compound, how does the IC50 (Substance-P receptor) read?
Its IC50 is 31 nM.

And the IC50 [2]?
The IC50 was 210 nM.

For N[C@H]1CC[C@](COCc2cc(C(F)(F)F)cc(C(F)(F)F)c2)(c2ccccc2)C1, which IC50 (Substance-P receptor) is on record?
Its IC50 is 19 nM.

And the IC50 [2]?
Its IC50 is 350 nM.

With N[C@@H]1CC[C@@](COCc2cc(C(F)(F)F)cc(C(F)(F)F)c2)(c2ccccc2)C1 as the compound, how does the IC50 (Substance-P receptor) read?
Its IC50 is 11 nM.

What about the IC50 [2] of the same compound?
The IC50 was 130 nM.

With FC(F)(F)c1cc(COCC2(c3ccccc3)CCC(N3CCOCC3)CC2)cc(C(F)(F)F)c1 (mixture of isomers) as the compound, how does the IC50 (Substance-P receptor) read?
The IC50 was 350 nM.

And the IC50 [2]?
Its IC50 is > 1000 nM.

What does the source list for CN1CCN(C2CCC(COCc3cc(C(F)(F)F)cc(C(F)(F)F)c3)(c3ccccc3)CC2)CC1 (mixture of isomers)?
IC50 (Substance-P receptor): 120 nM; IC50 [2]: 520 nM

What does the source list for CCNC1CCC(COCc2cc(C(F)(F)F)cc(C(F)(F)F)c2)(c2ccccc2)CC1 (mixture of isomers)?
IC50 (Substance-P receptor): 14 nM; IC50 [2]: 150 nM

What does the source list for FC(F)(F)c1cc(COCC2(c3ccccc3)CCC(NC3CC3)CC2)cc(C(F)(F)F)c1 (mixture of isomers)?
IC50 (Substance-P receptor): 74 nM; IC50 [2]: 680 nM

Which IC50 (Substance-P receptor) does the source give for CN(C)C1CCC(COCc2cc(C(F)(F)F)cc(C(F)(F)F)c2)(c2ccccc2)CC1 (mixture of isomers) here?
Its IC50 is 48 nM.

What about the IC50 [2] of the same compound?
Its IC50 is 250 nM.

What does the source list for CCN(CC)C1CCC(COCc2cc(C(F)(F)F)cc(C(F)(F)F)c2)(c2ccccc2)CC1 (mixture of isomers)?
IC50 (Substance-P receptor): 38 nM; IC50 [2]: 280 nM

With FC(F)(F)c1cc(COCC2(c3ccccc3)CCC(N3CCCC3)CC2)cc(C(F)(F)F)c1 (mixture of isomers) as the compound, how does the IC50 (Substance-P receptor) read?
The IC50 was 120 nM.

And the IC50 [2]?
The IC50 was > 1000 nM.

Which IC50 (Substance-P receptor) does the source give for FC(F)(F)c1cc(COCC2(c3ccccc3)CCC(N3CCCCC3)CC2)cc(C(F)(F)F)c1 (mixture of isomers) here?
Its IC50 is 93 nM.

And the IC50 [2]?
The IC50 was 970 nM.

For CN(C)C1CCC(COCc2cc(C(F)(F)F)cc(C(F)(F)F)c2)(c2ccccc2)C1 (mixture of isomers), which IC50 (Substance-P receptor) is on record?
Its IC50 is 8 nM.

What about the IC50 [2] of the same compound?
The IC50 was 57 nM.

Which IC50 (Substance-P receptor) does the source give for CC(C)N(C(C)C)C1CCC(COCc2cc(C(F)(F)F)cc(C(F)(F)F)c2)(c2ccccc2)C1 (mixture of isomers) here?
Its IC50 is 470 nM.

What about the IC50 [2] of the same compound?
The IC50 was > 1000 nM.

For FC(F)(F)c1cc(COCC2(c3ccccc3)CCC(NC3CC3)C2)cc(C(F)(F)F)c1 (mixture of isomers), which IC50 (Substance-P receptor) is on record?
The IC50 was 16 nM.

And the IC50 [2]?
The IC50 was 530 nM.

For COCCN(C)C1CCC(COCc2cc(C(F)(F)F)cc(C(F)(F)F)c2)(c2ccccc2)C1 (mixture of isomers), which IC50 (Substance-P receptor) is on record?
Its IC50 is 20 nM.

What about the IC50 [2] of the same compound?
Its IC50 is > 1000 nM.

For FC(F)(F)c1cc(COCC2(c3ccccc3)CCC(N3CCCC3)C2)cc(C(F)(F)F)c1 (mixture of isomers), which IC50 (Substance-P receptor) is on record?
The IC50 was 14 nM.

And the IC50 [2]?
The IC50 was > 1000 nM.

Which IC50 (Substance-P receptor) does the source give for FC(F)(F)c1cc(COCC2(c3ccccc3)CCC(N3CCCCC3)C2)cc(C(F)(F)F)c1 (mixture of isomers) here?
Its IC50 is 4.7 nM.

What about the IC50 [2] of the same compound?
Its IC50 is > 1000 nM.

With FC(F)(F)c1cc(COCC2(c3ccccc3)CCC(N3CCOCC3)C2)cc(C(F)(F)F)c1 (mixture of isomers) as the compound, how does the IC50 (Substance-P receptor) read?
The IC50 was 45 nM.

What about the IC50 [2] of the same compound?
The IC50 was > 1000 nM.

With CNC1CCC(COCc2cc(C(F)(F)F)cc(C(F)(F)F)c2)(c2ccccc2)CC1 (mixture of isomers) as the compound, how does the IC50 (Substance-P receptor) read?
Its IC50 is 16 nM.

And the IC50 [2]?
The IC50 was 190 nM.
